# Measurements reported in US20240059680A1, “N-(2,3-DIHYDRO-1,4-BENZOXAZIN-4-YL)-3-ISOPROPYL-7-(2,3,5-TRIFLUOROPHENYL)BENZO-THIOPHENE-2-CARBOXAMIDE DERIVATIVES AND SIMILAR COMPOUNDS FOR THE TREATMENT OF HEARTWORM INFECTIONS” (ELANCO TIERGESUNDHEIT AG, priority 2020, published 2024).
# pEC50: −log10 of the molar value. Read-outs that look alike come from different tables or passages of the source.
# Legend:
# [1] = tested on: Adult Nippostrongylus brasiliensis; experiment: In Vitro Assay 5: Nippostrongylus brasiliensis (NIPOBR), acetylcholine esterase readout; format: cell-based
# Protocol: In Vitro Assay 5: Nippostrongylus Brasiliensis (NIPOBR)
# Adult Nippostrongylus brasiliensis were washed with saline buffer containing 100 U/ml penicillin, 0.1 mg/ml streptomycin and 2.5 μg/ml amphotericin B. Test compounds were dissolved in DMSO and worms were incubated in medium in a final concentration of 10 μg/ml (10 ppm), 1 μg/ml (1 ppm) and 0.1 μg/ml (0.1 ppm) respectively. An aliquot of the medium was used to determine the acetylcholine esterase activity in comparison to a negative control. The principle of measuring acetylcholine esterase as readout for anthelmintic activity was described in Rapson et al (1986) and Rapson et al (1987).
# Based on the evaluation of a wide concentration range, concentration-response curves as well as EC50-values were calculated.
# [2] = tested on: Dirofilaria immitis microfilariae; experiment: In Vitro Assay 3: Dirofilaria immitis microfilariae (DIROIM L1) motility; format: cell-based; conditions: 72 h
# [3] = tested on: Dirofilaria immitis third-stage larvae; experiment: In Vitro Assay 4: Dirofilaria immitis (DIROIM L4) larval motility; format: cell-based; conditions: 72 h
# C. elegans Slo-1a = C. elegans Slo-1a (Caenorhabditis elegans, UniProt Q95V25)
# Chain of C. elegans Slo-1a (Q95V25 whole entry): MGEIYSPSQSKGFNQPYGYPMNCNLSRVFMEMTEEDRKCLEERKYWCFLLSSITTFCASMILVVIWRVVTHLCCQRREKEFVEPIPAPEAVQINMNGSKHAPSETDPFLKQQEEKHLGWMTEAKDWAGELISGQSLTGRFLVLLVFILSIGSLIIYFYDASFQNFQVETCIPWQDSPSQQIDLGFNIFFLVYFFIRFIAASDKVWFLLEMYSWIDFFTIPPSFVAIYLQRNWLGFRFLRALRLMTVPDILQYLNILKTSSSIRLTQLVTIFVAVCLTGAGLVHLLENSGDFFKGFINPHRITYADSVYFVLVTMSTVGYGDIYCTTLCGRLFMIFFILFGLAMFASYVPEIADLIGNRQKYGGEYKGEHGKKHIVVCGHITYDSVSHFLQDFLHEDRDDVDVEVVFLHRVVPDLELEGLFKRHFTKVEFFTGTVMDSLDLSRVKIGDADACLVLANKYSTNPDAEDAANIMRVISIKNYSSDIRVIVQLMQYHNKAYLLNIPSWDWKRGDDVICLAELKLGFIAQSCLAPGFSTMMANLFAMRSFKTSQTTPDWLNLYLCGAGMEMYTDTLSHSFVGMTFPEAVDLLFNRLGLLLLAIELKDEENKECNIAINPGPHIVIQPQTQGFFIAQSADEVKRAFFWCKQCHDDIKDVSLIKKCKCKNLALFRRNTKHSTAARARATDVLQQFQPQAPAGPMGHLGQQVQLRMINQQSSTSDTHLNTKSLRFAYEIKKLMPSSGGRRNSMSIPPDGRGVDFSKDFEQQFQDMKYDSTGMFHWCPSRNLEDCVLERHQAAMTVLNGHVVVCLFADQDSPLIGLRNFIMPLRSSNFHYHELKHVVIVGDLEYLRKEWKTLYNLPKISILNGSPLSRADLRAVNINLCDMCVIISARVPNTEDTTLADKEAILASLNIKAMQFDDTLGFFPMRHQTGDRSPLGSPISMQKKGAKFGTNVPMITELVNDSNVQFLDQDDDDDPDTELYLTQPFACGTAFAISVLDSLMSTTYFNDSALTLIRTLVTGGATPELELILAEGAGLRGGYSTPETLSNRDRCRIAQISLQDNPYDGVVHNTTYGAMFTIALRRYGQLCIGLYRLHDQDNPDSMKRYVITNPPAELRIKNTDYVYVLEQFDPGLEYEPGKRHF
# Protocol: For transfection with plasmid DNA to express C. elegans Slo-1a (accession number AAL28102) CHO cells were passaged to 40% confluence before adding the transfection solution to the cell culture. The transfection solution included 300 μL OptiMEM (Life Technologies, Nr.: 31985), 2 μL (=6 μg) of plasmid DNA containing the C. elegans Slo-1a gene and 9 μL FugeneHD (Promega, Nr.: E2311), and was added to the cells prior to incubation for 48 hours at 37° C., 5% CO2. The transfection medium was exchanged for the selection medium which contains additional G418 (2 mg/ml, Invitrogen, Nr.: 10131) and the cells were seeded into 384 well plates (300 cells/well). After a few weeks, the remaining surviving cells were tested with a voltage sensitive dye (Membrane Potential Assay Kit, Molecular Devices Nr.: R8034) for K+ channel expression. Positive cell clones were purified by the limited dilution technique. For this the clone with the highest and most robust signal in the voltage sensitive dye assay was further subcloned (incubated) in 384 well plates (0.7 cells/well) to obtain clonal purity. This generated a final stable CHO cell line expressing the C. elegans Slo-1a.
# Cell culture conditions Cells were cultured at 37° C. and 5% CO2 in MEMalpha with Gutamax I (Invitrogen, Nr.: 32571), supplemented with 10% (v/v) heat inactivated fetal bovine serum (Invitrogen, Nr.: 10500), G418 (1 mg/ml, Invitrogen, Nr.: 10131). Cells were detached using Accutase (Sigma, Nr.: A6964).
# Membrane Potential Measurements
# Laboratory compound testing was performed on 384-well microtiter plates (MTPs, Greiner, Nr.: 781092). 8000 cells/well were plated onto 384-well MTPs and cultured for 20 to 24 hours at 37° C. and 5% CO2. After removal of the cell culture medium, the cells were washed once with tyrode (150 mM NaCl, 0.3 mM KCl, 2 mM CaCl2, 1 m M MgCl2, 0.8 mM NaH2PO4, 5 mM Glucose, 28 mM Hepes, pH 7.4) and then loaded with the voltage sensitive dye of the Membrane Potential Assay Kit diluted in tyrode for 1 h at room temperature. After starting the measurement of fluorescence using a FLIPR Tetra (Molecular Devices, Exc. 510-545 nm, Emm. 565-625 nm), test compounds were added followed by the addition of KCl tyrode (final assay concentration: 70 mM KCl, 2 mM CaCl2, 1 mM MgCl2, 0.8 mM NaH2PO4, 5 mM Glucose, 28 mM Hepes, pH 7.4, including the voltage sensitive dye). The measurement was completed after 7 minutes.
# EC50 values were calculated using a four-parameter plotting by the Scilligence ELN/Regmol Software Tool, Bioassay.
# D. immitis Slo-1 = D. immitis Slo-1 (Dirofilaria immitis, UniProt I0DFK5); experiment: In Vitro Assay 2: D. immitis Slo-1, membrane potential measurement in recombinant CHO cell line; format: cell-based
# Chain of D. immitis Slo-1 (I0DFK5 1-1119): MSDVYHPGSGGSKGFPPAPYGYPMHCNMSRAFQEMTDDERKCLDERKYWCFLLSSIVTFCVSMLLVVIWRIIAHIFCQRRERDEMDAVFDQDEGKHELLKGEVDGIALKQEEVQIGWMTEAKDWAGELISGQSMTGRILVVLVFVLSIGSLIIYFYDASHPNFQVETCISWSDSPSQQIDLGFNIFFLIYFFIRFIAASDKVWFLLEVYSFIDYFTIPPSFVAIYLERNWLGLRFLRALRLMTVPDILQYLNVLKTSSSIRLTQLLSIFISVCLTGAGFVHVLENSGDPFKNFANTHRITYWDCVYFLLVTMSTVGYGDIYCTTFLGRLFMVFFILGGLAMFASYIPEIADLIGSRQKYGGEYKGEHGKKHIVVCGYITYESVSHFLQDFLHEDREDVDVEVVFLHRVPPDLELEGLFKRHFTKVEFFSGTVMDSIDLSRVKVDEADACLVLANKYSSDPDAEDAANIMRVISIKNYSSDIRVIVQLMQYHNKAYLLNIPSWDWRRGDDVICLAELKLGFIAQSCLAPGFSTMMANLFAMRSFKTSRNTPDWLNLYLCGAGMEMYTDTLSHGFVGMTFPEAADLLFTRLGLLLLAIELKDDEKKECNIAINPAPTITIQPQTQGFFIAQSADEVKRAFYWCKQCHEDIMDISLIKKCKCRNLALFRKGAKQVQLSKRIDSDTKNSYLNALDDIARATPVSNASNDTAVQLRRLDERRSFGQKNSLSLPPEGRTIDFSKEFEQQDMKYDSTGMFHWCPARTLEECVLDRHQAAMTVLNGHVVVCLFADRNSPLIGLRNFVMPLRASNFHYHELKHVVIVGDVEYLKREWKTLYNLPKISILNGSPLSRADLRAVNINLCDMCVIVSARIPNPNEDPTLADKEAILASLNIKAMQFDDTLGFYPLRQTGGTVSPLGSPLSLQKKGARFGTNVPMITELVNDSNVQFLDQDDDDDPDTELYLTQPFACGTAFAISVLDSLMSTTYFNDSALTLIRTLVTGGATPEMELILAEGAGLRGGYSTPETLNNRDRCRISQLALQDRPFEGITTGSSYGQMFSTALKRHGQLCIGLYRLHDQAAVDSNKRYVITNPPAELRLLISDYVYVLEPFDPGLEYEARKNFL
# [4] = acetylcholine esterase activity in medium vs negative control, adult worms, read-out: EC50
SMILES,"EC50 [1, 4] [µg/mL]",EC50 [2] [µg/mL],EC50 [3] [µg/mL],pEC50 (C. elegans Slo-1a),pEC50 (D. immitis Slo-1),EC50 [1] [µg/mL]
"Cc1nn2c(C(C)C)c(C(=O)NN3CCOc4ccccc43)nnc2c1-c1c(F)cccc1F [Example 5.1, 8-(2,6-Difluorophenyl)-N-(2,3-dihydro-1,4-benzoxazin-4-yl)-4-isopropyl-7-methyl-pyrazolo[5,1-c][1,2,4]triazine-3-carboxamide]",> 1,< 0.1,0.1 to 1,6.00 to 7.00,< 6.00,
"CC(C)c1c(C(=O)NN2CCOc3ccccc32)sc2c(-c3cc(F)cc(F)c3F)ccnc12 [6,7]",,,,,,< 0.1
"Cc1nn2c(N3CCOCC3)c(C(=O)NN3CCOc4ccccc43)sc2c1-c1cc(F)cc(F)c1F [Example 4.2, N-(2,3-Dihydro-4H-benzo[b][1,4]oxazin-4-yl)-6-methyl-3-morpholino-7-(2,3,5-trifluorophenyl)pyrazolo[5,1-b]thiazole-2-carboxamide]",0.1 to 1,< 0.1,< 0.1,> 7.00,< 6.00,
"CN(C)c1c(C(=O)NN2CCOc3ccccc32)cnc2c1ccn2-c1cc(F)cc(F)c1F [Example 18.1, N-(2,3-Dihydro-4H-benzo[b][1,4]oxazin-4-yl)-4-(dimethylamino)-1-(2,3,5-trifluorophenyl)-1H-pyrrolo[2,3-b]pyridine-5-carboxamide]",> 1,,< 0.1,6.00 to 7.00,< 6.00,
"CC(C)c1c(C(=O)NN2CCOc3ccccc32)cnc2c1nnn2-c1cc(F)cc(F)c1F [Example 14.1, N-(2,3-Dihydro-4H-benzo[b][1,4]oxazin-4-yl)-7-isopropyl-3-(2,3,5-trifluorophenyl)-3H-[1,2,3]triazolo[4,5-b]pyridine-6-carboxamide]",> 1,< 0.1,> 1,< 6.00,< 6.00,
"O=C(NN1CCOc2ccccc21)c1sc2c(-c3cc(F)cc(F)c3F)ccnc2c1N1CC(F)C1 [Example 6.6, N-(2,3-dihydro-4H-benzo[b][1,4]oxazin-4-yl)-3-(3-fluoroazetidin-1-yl)-7-(2,3,5-trifluorophenyl)thieno[3,2-b]pyridine-2-carboxamide]",> 1,< 0.1,0.1 to 1,6.00 to 7.00,< 6.00,
"CC(C)c1c(C(=O)NN2CCOc3ccccc32)nc2c(-c3cc(F)cc(F)c3F)nccn12 [Example 8.1, N-(2,3-Dihydro-4H-benzo[b][1,4]oxazin-4-yl)-3-isopropyl-8-(2,3,5-trifluorophenyl)-imidazo[1,2-a]pyrazine-2-carboxamide]",> 1,0.1 to 1,0.1 to 1,< 6.00,< 6.00,
"CC(C)c1c(C(=O)NN2CCOc3ccccc32)oc2c(-c3cc(F)cc(F)c3F)cccc12 [Example 19.1, N-(2,3-Dihydro-1,4-benzoxazin-4-yl)-3-(1-methylethyl)-7-[2,3,5-tris(fluoranyl)-phenyl]benzofuran-2-carboxamide]",0.1 to 1,,< 0.1,,,
"CC(C)c1c(C(=O)NN2CCOc3ccccc32)sc2c(-c3cc(F)cc(F)c3F)c(F)cnc12 [Example 6.3, N-(2,3-Dihydro-4H-benzo[b][1,4]oxazin-4-yl)-6-fluoro-3-isopropyl-7-(2,3,5-trifluoro-phenyl)thieno[3,2-b]pyridine-2-carboxamide]",,< 0.1,< 0.1,> 7.00,> 7.00,< 0.1
"Cc1cnc2c(C(C)C)c(C(=O)NN3CCOc4ccccc43)nn2c1-c1cc(F)cc(F)c1F [Example 9.1, N-(2,3-Dihydro-4H-benzo[b][1,4]oxazin-4-yl)-3-isopropyl-6-methyl-7-(2,3,5-trifluorophenyl)-pyrazolo[1,5-a]pyrimidine-2-carboxamide]",> 1,< 0.1,0.1 to 1,< 6.00,< 6.00,
"CC(C)(O)c1c(C(=O)NN2CCOc3ccccc32)sc2c(-c3cc(F)cc(F)c3F)c(F)cnc12 [Example 6.1, N-(2,3-Dihydro-4H-benzo[b][1,4]oxazin-4-yl)-6-fluoro-3-(2-hydroxypropan-2-yl)-7-(2,3,5-trifluorophenyl)thieno[3,2-b]pyridine-2-carboxamide]",,< 0.1,< 0.1,> 7.00,> 7.00,< 0.1
"O=C(NN1CCOc2ccccc21)c1sc2c(-c3cc(F)cc(F)c3F)c(F)cnc2c1N1CC(F)C1 [Example 6.2, N-(2,3-dihydro-4H-benzo[b][1,4]oxazin-4-VI)-6-fluoro-3-(3-fluoroazetidin-1-yl)-7-(2,3,5-trifluorophenyl)thieno[3,2-b]pyridine-2-carboxamide]",> 1,< 0.1,0.1 to 1,6.00 to 7.00,< 6.00,
"O=C(NN1CCOc2ccccc21)c1sc2c(-c3cc(F)cc(F)c3F)ccnc2c1N1CCOCC1 [Example 6.8, N-(2,3-Dihydro-4H-benzo[b][1,4]oxazin-4-yl)-3-morpholino-7-(2,3,5-trifluoro-phenyl)thieno[3,2-b]pyridine-2-carboxamide]",> 1,< 0.1,< 0.1,> 7.00,6.00 to 7.00,
"CC(C)(O)c1c(C(=O)NN2CCOc3ccccc32)sc2c(-c3cc(F)cc(F)c3F)ccnc12 [Example 6.5, N-(2,3-Dihydro-4H-benzo[b][1,4]oxazin-4-yl)-3-(2-hydroxypropan-2-yl)-7-(2,3,5-trifluorophenyl)thieno[3,2-b]pyridine-2-carboxamide]",0.1 to 1,< 0.1,< 0.1,> 7.00,> 7.00,
"CC(C)c1c(C(=O)NN2CCOc3ccccc32)cnc2c1cnn2-c1cc(F)cc(F)c1F [Example 10.1, N-(2,3-Dihydro-4H-benzo[b][1,4]oxazin-4-yl)-4-isopropyl-1-(2,3,5-trifluorophenyl)-1H-pyrazolo[3,4-b]pyridine-5-carboxamide]",> 1,0.1 to 1,< 0.1,6.00 to 7.00,< 6.00,
"CC(C)c1c(C(=O)NN2CCOc3ccccc32)n(C)c2c(-c3cc(F)cc(F)c3F)cccc12 [Example 17.2, N-(2,3-Dihydro-4H-benzo[b][1,4]oxazin-4-yl)-3-isopropyl-1-methyl-7-(2,3,5-trifluoro-phenyl)-1H-indole-2-carboxamide]",> 1,,> 1,< 6.00,< 6.00,
"CC(C)c1c(C(=O)NN2CCOc3ccccc32)cnc2c(-c3cc(F)cc(F)c3F)ncn12 [Example 11.1, N-(2,3-Dihydro-4H-benzo[b][1,4]oxazin-4-yl)-4-isopropyl-8-(2,3,5-trifluoro-phenyl)-imidazo[1,5-a]pyrimidine-3-carboxamide]",> 1,0.1 to 1,< 0.1,6.00 to 7.00,< 6.00,
"CC(C)c1c(C(=O)NN2CCOc3ccccc32)sc2c(-c3cc(F)cc(F)c3F)ccnc12 [Example 6.7, N-(2,3-Dihydro-4H-benzo[b][1,4]oxazin-4-yl)-3-isopropyl-7-(2,3,5-trifluorophenyl)-thieno [3,2-b]pyridine-2-carboxamide]",,< 0.1,< 0.1,> 7.00,> 7.00,
